In general, IC50 refers to the concentration needed to halve the response being measured. Read a high IC50 as lower potency. In general, ED50 refers to the dose at which the effect has come halfway, by size or by number of responders.

The structures appear in SMILES notation.

The subject of one data set is MAO. The settings on record: selective at lower dosages, less selective at higher dosages; cited from earlier work.
Data set [1] deals with T1, MAO-A (Rattus norvegicus, UniProt P21396).
T1 construct: preparing mitochondria from rat brain by homogenation in phosphate buffer; from tissue; host or cells: rat brain mitochondria
T1 sequence (P21396 1-526): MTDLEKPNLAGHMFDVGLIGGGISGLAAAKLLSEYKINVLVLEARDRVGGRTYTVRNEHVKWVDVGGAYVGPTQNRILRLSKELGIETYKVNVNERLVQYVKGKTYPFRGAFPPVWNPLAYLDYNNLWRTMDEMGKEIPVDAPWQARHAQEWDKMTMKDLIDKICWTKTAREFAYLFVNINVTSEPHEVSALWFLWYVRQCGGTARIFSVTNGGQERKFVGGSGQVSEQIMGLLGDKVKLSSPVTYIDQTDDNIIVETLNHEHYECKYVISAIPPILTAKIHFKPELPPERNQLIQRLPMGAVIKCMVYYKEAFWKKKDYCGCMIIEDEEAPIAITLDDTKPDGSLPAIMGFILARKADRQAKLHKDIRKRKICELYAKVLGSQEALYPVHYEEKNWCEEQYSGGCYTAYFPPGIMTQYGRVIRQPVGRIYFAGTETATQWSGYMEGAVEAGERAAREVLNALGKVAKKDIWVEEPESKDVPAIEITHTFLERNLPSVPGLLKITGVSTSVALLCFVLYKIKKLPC
As to the kind of experiment: Inhibition of MAO - in vitro, partially purified mitochondria from rat brain, 14C 5-hydroxytryptamine (5-HT) substrate (MAO-A). It is filed as biochemical. The settings on record: substrate 14C 5-hydroxytryptamine (5HT), preferred substrate for MAO-A. An excerpt:
(§1) The ability of a compound of structure 1 to inhibit MAO can be determined in vitro by the method of A. Christmas et al., Br. J. Pharmacol. 45, 490 (1972) in partially purified mitochondria from rat brain using ^14 C otyramine or ^14 C phenethylamine and ^14 C 5-HT as the substrate. The MAO inhibitory activity of a compound is expressed as the "IC50 " value, which is the molar concentration required to produce 50% inhibition of the enzyme. The IC50 values for certain compounds of structure 1 were determined using the above-described method, and the results are set forth in Table I.
(§2) The selectivity of a compound of structure 1 with respect to inhibition of MAO-A and MAO-B can be determined by preparing mitochondria from rat brain by homogenation in phosphate buffer (0.1 M, pH 7.2) followed by differential centrifugation. The mitochondria are suspended in the same buffer, the test compound is added at the desired concentration, and the system is incubated. At different time intervals, aliquots are taken and MAO activity is measured using ^14 C 5-hydroxytryptamine (5HT; a preferred substrate for MAO-A) or 14C -phenethylamine (PEA; a preferred substrate for MAO-B) as the substrates. The selectivity is expressed as the ratio of the inhibitory activity against MAO-B versus the inhibitory activity against MAO-A. (Zreika, McDonald, Bey, Palfreyman, J. Neurochem., 448-454 (1984)).

Data set [2] has as its target T2, MAO-B (Rattus norvegicus, UniProt P19643).
T2 construct: preparing mitochondria from rat brain by homogenation in phosphate buffer; from tissue; host or cells: rat brain mitochondria
T2 sequence (P19643 1-520): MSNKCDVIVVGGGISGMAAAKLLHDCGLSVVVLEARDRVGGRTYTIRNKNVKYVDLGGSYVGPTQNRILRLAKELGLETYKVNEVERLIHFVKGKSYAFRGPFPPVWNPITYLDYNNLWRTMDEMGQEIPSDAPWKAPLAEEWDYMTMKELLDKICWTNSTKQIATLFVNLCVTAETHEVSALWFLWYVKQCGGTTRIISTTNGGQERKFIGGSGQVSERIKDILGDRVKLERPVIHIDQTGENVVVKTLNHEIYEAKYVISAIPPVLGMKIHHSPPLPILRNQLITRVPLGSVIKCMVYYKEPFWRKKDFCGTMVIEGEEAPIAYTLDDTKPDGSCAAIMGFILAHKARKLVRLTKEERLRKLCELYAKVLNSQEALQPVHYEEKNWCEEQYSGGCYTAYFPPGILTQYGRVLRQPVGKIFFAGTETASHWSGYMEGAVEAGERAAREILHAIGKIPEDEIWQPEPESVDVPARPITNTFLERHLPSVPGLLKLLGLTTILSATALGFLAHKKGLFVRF
As to the kind of experiment: Inhibition of MAO - in vitro, partially purified mitochondria from rat brain, 14C-phenethylamine (PEA) substrate (MAO-B). The class given is biochemical. The settings on record: substrate 14C-phenethylamine (PEA), preferred substrate for MAO-B.
Text: as §1, §2

Data set [3] deals with T2, MAO-B. Kind of data set: Inhibition of MAO - ex vivo, brain mitochondria of orally dosed rats, 14C phenethylamine substrate (MAO-B). It is filed as in vivo. The settings on record: po, brain mitochondrial fraction. As to the method:
(§3) The test compound is administered orally (po) to rats and the animals are killed at various times after treatment. The brain is removed and a mitochondrial fraction, described in Example 12 is prepared. MAO activity is determined using ^14 C p-tyramine, as the substrate. Selectivity can be determined by repeating the above-described test using either ^14 C 5-hydroxytryptamine (for MAO-A) or ^14 C phenethylamine (for MAO-B) as the substrate for determining the % inhibition.

The target in data set [4] is T1, MAO-A. As to the kind of experiment: Inhibition of MAO - ex vivo, brain mitochondria of orally dosed rats, 14C 5-hydroxytryptamine substrate (MAO-A). The settings on record: po, brain mitochondrial fraction. The class given is in vivo. The procedure: as §3
For data set [5] the following is noted: cited from earlier work; for clinical antidepressant effect: man.

Consider `N[C@@H]1C[C@H]1c1ccccc1` (relative stereo) [tranylcypromine], for which, in the data set on MAO, the “preferential inhibition of MAO (in words)” value (from here on “preferential inhibition”) is on record as “not preferential in their action upon MAO”.

As for `CCCC/C(=C\F)CN` [(E)-2-Butyl-3-fluoroallylamine], the IC50 on MAO-A [1] was 110 nM; against MAO-B [2] it was 2 nM.

With `CCCCCCC/C(=C\F)CN` [(E)-2-Heptyl-3-fluoroallylamine], the IC50 against MAO-A [1] is 60 nM; on MAO-B [2], 4.5 nM.

On to `CCCCCC/C(=C\F)CN` [(E)-2-Hexyl-3-fluoroallylamine], for which the IC50 is 170 nM at MAO-A [1] and 7 nM against MAO-B [2].

Take `CC(C)C/C(=C\F)CN` [(E)-2-Isobutyl-3-fluoroallylamine]: the IC50 amounted to 2300 nM against MAO-A [1] and 30 nM at MAO-B [2]. For the same compound, the ED50 at MAO-B [3] was 0.05 mg/kg; at MAO-A [4], 0.8 mg/kg.

With `CC(C)/C(=C\F)CN` [(E)-2-Isopropyl-3-fluoroallylamine], the figures for the IC50 on MAO-A [1] and at MAO-B [2] were 170000 nM and 2500 nM, respectively.

`CCCCCCCCCCC/C(=C\F)CN` [(E)-2-Undecyl-3-fluoroallylamine]: the results for the IC50 against MAO-A [1] and on MAO-B [2] were 750 nM and 500 nM, respectively.

As to `CCC(C)/C(=C\F)CN` (centres unmarked) [(E)-2-sec-Butyl-3-fluoroallylamine], the IC50 against MAO-A [1] was found to be 170000 nM; against MAO-B [2], 7000 nM.

Take `C#CCN(C)[C@H](C)Cc1ccccc1` [L-deprenyl]: in the data set on MAO, the “preferential inhibition” value was “MAO-B is preferentially inhibited”. Besides, the cheese effect entry in data set [5] (low dosages where preferential inhibition of MAO-B occurs) was “not observed”. In data set [5], the clinical antidepressant effect result is “clinically effective antidepressant agents”. In addition, the “potentiation of L-DOPA in Parkinson's disease” value in data set [5] (treatment of Parkinson's disease) is reported as “potentiate L-DOPA for the treatment of Parkinson's disease without producing peripheral side effects”.

Turning to `C#CCN(C)CCCOc1ccc(Cl)cc1Cl` [clorgyline], the clinical antidepressant effect entry in data set [5] is “clinically effective antidepressant agents”.

Consider `Cc1cc(C(=O)NNCc2ccccc2)no1` [isocarboxazid], for which the “preferential inhibition” value in the data set with MAO was “not preferential in their action upon MAO”.

Take `C#CCN(C)Cc1ccccc1` [pargyline]: the “preferential inhibition” value with MAO is “MAO-B is preferentially inhibited”. Moreover, the clinical antidepressant effect result in data set [5] is given as “clinically effective antidepressant agents”.

For `NNCCc1ccccc1` [phenelzine], in the data set on MAO, the “preferential inhibition” value is on record as “not preferential in their action upon MAO”.
